Paper PMC7582905, “Effect of Disulfide Cyclization of Ultrashort Cationic Lipopeptides on Antimicrobial Activity and Cytotoxicity” (International Journal of Molecular Sciences, 2020)
In brackets after ≈: the same amount, converted by molar mass. Where a SMILES comes first, the peptide text is derived from it. Bridges are numbered along the chain shown (N, C = ends). The star is where a group is joined. Palmitoyl = CCCCCCCCCCCCCCCC(=O)*

Columns and labels:
Format in all cases: cell-based
[1] = tested on: Candida albicans ATCC 10231; conditions: ATCC 10231, 24 h
Outline: (§1)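 MIC = lowest lipopeptide concentration (range 0.5–256 μg/mL) with no noticeable growth, scored by eye. Bacteria tested in MHB at 5 × 10^5 CFU/mL for 18 h; Candida in RPMI-1640 + 2% D-glucose at 2 × 10^3 CFU/mL for 24 h; both at 37 °C.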

[2] = tested on: Staphylococcus epidermidis ATCC 14990; conditions: ATCC 14990, 18 h
Outline: as §1

[3] = tested on: Pseudomonas aeruginosa ATCC 9027; conditions: ATCC 9027, 18 h
Outline: as §1

[4] = tested on: Staphylococcus aureus ATCC 25923; conditions: ATCC 25923, 24 h
Method: (§2) The Staphylococcus aureus ATCC 25923, Staphylococcus epidermidis ATCC 14990, Escherichia coli ATCC 25922, Pseudomonas aeruginosa ATCC 9027, Candida albicans ATCC 10231, Candida glabrata ATCC 15126, Candida lipolytica PCM 2680-FY, and Candida tropicalis PCM 2709-FY strains were acquired from the Polish Collection of Microorganisms (PCM, Polish Academy of Sciences, Wrocław, Poland) and from the American Type Culture Collection (ATCC). All the strains were stored at −80 °C in Roti-Store cryo vials and before the tests were transferred into fresh Mueller–Hinton broth (MHB, Biocorp, Warsaw, Poland) for bacteria or RPMI-1640 (Sigma-Aldrich, Steinheim, Germany) for fungi and incubated for 24 h at 37 °C. Then, the cultures were seeded on Mueller–Hinton agar (BioMaxima, Lublin, Poland) or Sabouraud dextrose agar (SDA, BioMaxima, Lublin, Poland) plates, respectively, and incubated as just mentioned. These agar cultures were used for further microbiological assays. Cell densities for all assays were adjusted spectrophotometrically (Multiskan GO Microplate Spectrophotometer, Thermo Fisher Scientific, Vantaa, Finland) at 600 and 660 nm for bacteria and fungi, respectively.
(§3) The assay was performed to evaluate the effect of the lipopeptides in preventing biofilm formation. The preparation of inoculums was followed by a ca. 500-fold dilution of the 24 h cultures of microorganisms. Briefly, 50 μL of the compounds in the concentration range, diluted in appropriate medium, were prepared on 96-well polystyrene flat-bottom plates. Subsequently, the 50 μL of the bacterial/fungal inoculums were added to reach the same microbial density as that in the MBEC assay. After 24 h of incubation at 37 °C, the wells were rinsed three times with PBS and the fresh media with resazurin (4 g/L) were added. The MBICs were read after 1 h. All experiments were conducted in triplicate.

[5] = tested on: Candida glabrata ATCC 15126; conditions: ATCC 15126, 24 h
Method: as §2, §3

[6] = tested on: Escherichia coli ATCC 25922; conditions: ATCC 25922, 24 h
Method: as §2, §3

[7] = tested on: Candida albicans ATCC 10231; conditions: ATCC 10231, 24 h; remark: listed apart in the source
Method: as §2, §3

[8] = tested on: Candida lipolytica PCM 2680-FY; conditions: 24 h
Method: as §2, §3

[9] = tested on: Pseudomonas aeruginosa ATCC 9027; conditions: ATCC 9027, 24 h
Method: as §2, §3

[10] = tested on: human keratinocytes (HaCaT); test: MTT assay; conditions: 24 h incubation at 37 °C, six replicates per concentration, repeated at least twice
Method: (§4) To assess the cytotoxicity of the test lipopeptides (IC50), the classic MTT assay on 96-well polystyrene plates was performed for human keratinocytes (HaCaT) and human cervical adenocarcinoma cell line (HeLa S3) acquired from the ATCC. The assay utilizes colorimetric determination of the cell metabolic activity and the color intensity reflects the number of live cells that can be measured spectrophotometrically. The cell line was cultured in a Dulbecco’s modified Eagle Medium (Invitrogen) supplemented with 10% fetal bovine serum (v/v), 100 units/mL of penicillin, 100 μg/mL of streptomycin, and 2 mM l-glutamine and was stored at 37 °C in a humidified 5% CO2 incubator. Briefly, a day after plating of 500 cells per well, a series of concentrations (0.1–200 μg/mL) of the test compounds were applied. DMSO was added to the control cells at a final concentration of 1.0% (v/v), which was related to the maximal concentration of the solvent compounds used in the experiment. After 24 h of incubation with the lipopeptides at 37 °C in a humidified 5% CO2 incubator, a medium containing 1 mg/mL of MTT (3-(4,5-dimethylthiazol-2-yl)-2,5-diphenyltetrazolium bromide) was added to the wells up to a final concentration of 0.5 mg/mL. Subsequently, the plates were incubated at 37 °C for 4 h. Then, the medium was removed by suction, and the formazan product was solubilized with DMSO. The background absorbance at 630 nm was subtracted from that at 570 nm for each well (Epoch, BioTek Instruments, Winooski, VT, USA). Six replicates were conducted for each concentration. All experiments were repeated at least twice and the resulting IC50 values were calculated with a GraFit 7 software (v. 7.0, Erithacus, Berkley, CA, USA).

[11] = tested on: human cervical adenocarcinoma cell line (HeLa S3); test: MTT assay; conditions: 24 h incubation at 37 °C, six replicates per concentration, repeated at least twice
Method: as §4

[12] = tested on: human red blood cells (hRBCs); test: Hemolysis assay; conditions: peptide concentration causing 50% hemolysis; 4% (v/v) hRBCs in PBS, 1 h, 37 °C, absorbance 540 nm, triplicate
Method: The hemolysis assay was performed by using the method reported previously. Fresh human red blood cells (hRBCs) with anticoagulant (EDTA) were rinsed three times with a PBS by centrifugation at 800× g for 10 min and diluted with PBS. The lipopeptides were serially diluted on a 96-well microtiter polystyrene plate and hRBCs were added up to a final volume of 100 μL. The peptide concentration ranged between 0.5 and 256 μg/mL and the final hRBCs concentration was 4% (v/v). Controls for zero hemolysis (blank) and 100% hemolysis consisted of hRBCs suspended in PBS and 1% of Triton-X 100, respectively. The plate was incubated for 1 h at 37 °C and then centrifuged (800× g, 10 min, 4 °C). Subsequently, the supernatant was […] to new microtiter plates and the absorbance at 540 nm was measured. All experiments were conducted in triplicate. HC50 was calculated using an ic50.tk tool. Protocol of the study received approval from the local Bioethics Committee at the Medical University of Gdańsk (NKBBN/262/2019, approval date: 10 June 2019).

SMILES: CCCCCCCCCCCCCCCC(=O)N[C@@H](CCCCN)C(=O)N[C@@H](CCCNC(=N)N)C(=O)N[C@@H](CCCCN)C(=O)N[C@@H](CCCCN)C(N)=O [L4, C16-KRKK-NH2] (Palmitoyl-KRKK-NH2)
- MIC C. albicans [1]: 16 µg/mL (≈ 20.1 µM)
- MIC S. epidermidis [2]: 8 µg/mL (≈ 10 µM)
- MIC P. aeruginosa [3]: 32 µg/mL (≈ 40.2 µM)
- MBIC S. aureus [4]: 16 µg/mL
- MBIC C. glabrata [5]: 64 µg/mL
- MBIC E. coli [6]: 32 µg/mL
- MBIC C. albicans [7]: 32 µg/mL
- MBIC C. lipolytica [8]: 16 µg/mL
- MBIC P. aeruginosa [9]: 32 µg/mL
- HaCaT IC50 [10]: 4.3 ± 0.9 µg/mL
- HeLa IC50 [11]: 3.0 ± 0.6 µg/mL
- HC50 [12]: 79.8 ± 9.0 µg/mL

SMILES: CCCCCCCCCCCCCCCC(=O)N[C@H]1CSSC[C@@H](C(N)=O)NC(=O)[C@H](CCCCN)NC(=O)[C@H](CCCCN)NC(=O)[C@H](CCCNC(=N)N)NC(=O)[C@H](CCCCN)NC1=O [C4, C16-CKRKKC-NH2] (Palmitoyl-CKRKKC-NH2; disulfide 1-6)
- MIC C. albicans [1]: 2 µg/mL (≈ 2 µM)
- MIC S. epidermidis [2]: 8 µg/mL (≈ 8 µM)
- MIC P. aeruginosa [3]: 256 µg/mL (≈ 256 µM)
- MBIC S. aureus [4]: 16 µg/mL
- MBIC C. glabrata [5]: 16 µg/mL
- MBIC E. coli [6]: 32 µg/mL
- MBIC C. albicans [7]: 8 µg/mL
- MBIC C. lipolytica [8]: 4 µg/mL
- MBIC P. aeruginosa [9]: 32 µg/mL
- HaCaT IC50 [10]: 33.8 ± 3.1 µg/mL
- HeLa IC50 [11]: 27.5 ± 3.4 µg/mL
- HC50 [12]: 122.4 ± 16.5 µg/mL

SMILES: CCCCCCCCCCCCCCCC(=O)N[C@@H](CCCCN)C(=O)N[C@@H](CCCCN)C(=O)N[C@@H](CCCCN)C(N)=O [L1, C16-KKK-NH2]
- MIC C. albicans [1]: 32 µg/mL (≈ 50 µM)
- MIC S. epidermidis [2]: 8 µg/mL (≈ 12.5 µM)
- MIC P. aeruginosa [3]: 64 µg/mL (≈ 100 µM)
- MBIC S. aureus [4]: 32 µg/mL
- MBIC C. glabrata [5]: 128 µg/mL
- MBIC E. coli [6]: 32 µg/mL
- MBIC C. albicans [7]: 128 µg/mL
- MBIC C. lipolytica [8]: 32 µg/mL
- MBIC P. aeruginosa [9]: 32 µg/mL
- HaCaT IC50 [10]: 5.2 ± 0.6 µg/mL
- HeLa IC50 [11]: 3.9 ± 1.1 µg/mL
- HC50 [12]: 90.0 ± 6.5 µg/mL

SMILES: CCCCCCCCCCCCCCCC(=O)N[C@@H](CCCCN)C(=O)N[C@@H](CCCCN)C(=O)N[C@@H](CCCCN)C(=O)N[C@@H](CCCCN)C(N)=O [L2, C16-KKKK-NH2] (Palmitoyl-KKKK-NH2)
- MIC C. albicans [1]: 32 µg/mL (≈ 41.7 µM)
- MIC S. epidermidis [2]: 8 µg/mL (≈ 10.4 µM)
- MIC P. aeruginosa [3]: 16 µg/mL (≈ 20.8 µM)
- MBIC S. aureus [4]: 32 µg/mL
- MBIC C. glabrata [5]: 128 µg/mL
- MBIC E. coli [6]: 32 µg/mL
- MBIC C. albicans [7]: 128 µg/mL
- MBIC C. lipolytica [8]: 32 µg/mL
- MBIC P. aeruginosa [9]: 64 µg/mL
- HaCaT IC50 [10]: 23.5 ± 1.3 µg/mL
- HeLa IC50 [11]: 12.8 ± 1.1 µg/mL
- HC50 [12]: 105.9 ± 8.0 µg/mL

SMILES: CCCCCCCCCCCCCCCC(=O)N[C@@H](CCCCN)C(=O)N[C@@H](CCCCN)C(=O)N[C@@H](CCCNC(=N)N)C(=O)N[C@@H](CCCCN)C(N)=O [L5, C16-KKRK-NH2] (Palmitoyl-KKRK-NH2)
- MIC C. albicans [1]: 32 µg/mL (≈ 40.2 µM)
- MIC S. epidermidis [2]: 8 µg/mL (≈ 10 µM)
- MIC P. aeruginosa [3]: 64 µg/mL (≈ 80.4 µM)
- MBIC S. aureus [4]: 32 µg/mL
- MBIC C. glabrata [5]: 128 µg/mL
- MBIC E. coli [6]: 32 µg/mL
- MBIC C. albicans [7]: 64 µg/mL
- MBIC C. lipolytica [8]: 32 µg/mL
- MBIC P. aeruginosa [9]: 64 µg/mL
- HaCaT IC50 [10]: 2.4 ± 0.4 µg/mL
- HeLa IC50 [11]: 6.2 ± 2.7 µg/mL
- HC50 [12]: 96.7 ± 1.4 µg/mL

SMILES: CCCCCCCCCCCCCCCC(=O)N[C@H]1CSSC[C@@H](C(N)=O)NC(=O)[C@H](CCCCN)NC(=O)[C@H](CCCCN)NC(=O)[C@H](CCCCN)NC1=O [C1, C16-CKKKC-NH2] (Palmitoyl-CKKKC-NH2; disulfide 1-5)
- MIC C. albicans [1]: 8 µg/mL (≈ 9.48 µM)
- MIC S. epidermidis [2]: 4 µg/mL (≈ 4.74 µM)
- MIC P. aeruginosa [3]: 256 µg/mL (≈ 303 µM)
- MBIC S. aureus [4]: 16 µg/mL
- MBIC C. glabrata [5]: 32 µg/mL
- MBIC E. coli [6]: 64 µg/mL
- MBIC C. albicans [7]: 32 µg/mL
- MBIC C. lipolytica [8]: 16 µg/mL
- MBIC P. aeruginosa [9]: 128 µg/mL
- HaCaT IC50 [10]: 23.6 ± 6.0 µg/mL
- HeLa IC50 [11]: 25.5 ± 2.9 µg/mL
- HC50 [12]: 43.9 ± 3.5 µg/mL

SMILES: CCCCCCCCCCCCCCCC(=O)N[C@@H](CCCNC(=N)N)C(=O)N[C@@H](CCCNC(=N)N)C(=O)N[C@@H](CCCCN)C(=O)N[C@@H](CCCCN)C(N)=O [L7, C16-RRKK-NH2] (Palmitoyl-RRKK-NH2)
- MIC C. albicans [1]: 32 µg/mL (≈ 38.8 µM)
- MIC S. epidermidis [2]: 4 µg/mL (≈ 4.85 µM)
- MIC P. aeruginosa [3]: 64 µg/mL (≈ 77.7 µM)
- MBIC S. aureus [4]: 16 µg/mL
- MBIC C. glabrata [5]: 32 µg/mL
- MBIC E. coli [6]: 32 µg/mL
- MBIC C. albicans [7]: 32 µg/mL
- MBIC C. lipolytica [8]: 16 µg/mL
- MBIC P. aeruginosa [9]: 64 µg/mL
- HaCaT IC50 [10]: 8.1 ± 1.1 µg/mL
- HeLa IC50 [11]: 3.0 ± 0.4 µg/mL
- HC50 [12]: 65.4 ± 1.5 µg/mL

SMILES: CCCCCCCCCCCCCCCC(=O)N[C@@H](CCCNC(=N)N)C(=O)N[C@@H](CCCCN)C(=O)N[C@@H](CCCCN)C(=O)N[C@@H](CCCCN)C(N)=O [L3, C16-RKKK-NH2] (Palmitoyl-RKKK-NH2)
- MIC C. albicans [1]: 8 µg/mL (≈ 10 µM)
- MIC S. epidermidis [2]: 8 µg/mL (≈ 10 µM)
- MIC P. aeruginosa [3]: 32 µg/mL (≈ 40.2 µM)
- MBIC S. aureus [4]: 32 µg/mL
- MBIC C. glabrata [5]: 64 µg/mL
- MBIC E. coli [6]: 32 µg/mL
- MBIC C. albicans [7]: 64 µg/mL
- MBIC C. lipolytica [8]: 16 µg/mL
- MBIC P. aeruginosa [9]: 64 µg/mL
- HaCaT IC50 [10]: 23.6 ± 3.4 µg/mL
- HeLa IC50 [11]: 8.4 ± 1.7 µg/mL
- HC50 [12]: 79.1 ± 6.1 µg/mL
